The text below walks through data of PubChem BioAssay (NCI).

What all share (assay): NCI-60 cell line screen, 48 h
The subject of test [1] is K-562 leukemia.
Test [2] relates to CAKI-1 renal.
In test [3] the test system is SN12C renal.
Test [4] has as its system TK-10 renal.
In test [5] the test system is SF-295 CNS.
Test [6] concerns LOX IMVI melanoma.
For test [7], the system named is U251 CNS.
Test [8] concerns CCRF-CEM leukemia.
Test [9] has as its system HL-60(TB) leukemia.
Test [10] concerns DU-145 prostate.
The subject of test [11] is MALME-3M melanoma.

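Dose response: 5 concentrations. Exposure: 48 h. Format: 96-well plates. Endpoint: linear interpolation; highest concentration if not reached. Abbreviation: GI50, concentration required for 50% inhibition of growth. TGI: total growth inhibition.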

As for `CC[C@]1(Cc2ccc(OC)c(OC)c2)C=[N+]([O-])O[C@H](OC2CCCC2(c2ccccc2)c2ccccc2)[C@@H]1OC(=O)C(C)(C)C` (stereo partly drawn), the TGI in test [1] was greater than 100 µM; in [2], greater than 100 µM; in test [3] it was greater than 22.1 µM; in test [4], greater than 25.4 µM; in test [5], 14.8 µM; in [6], 4.18 µM. Moreover, the TGI in [7] is greater than 55.6 µM; in test [8] it was greater than 40.3 µM; in [9], 8.1 µM; in test [10], 4.45 µM.
For `O=c1cccccc1[O-].O=c1cccccc1[O-].O=c1cccccc1[O-].[Sm+3]`, the TGI in [1], in test [2], in test [3], in test [4], in test [5] and in [6] was greater than 100 µM in each case. The TGI in [7], in [8], in test [11] and in test [9] was greater than 100 µM each time. Moreover, the GI50 is 26.8 µM in test [3] and 13.8 µM in test [7].
`S=c1[nH]nc(CCCCCCCCc2n[nH]c(=S)o2)o1`: the TGI in test [1], in test [2], in test [3], in test [4], in [5] and in test [6] was greater than 100 µM throughout. The TGI in test [7], in test [8], in test [9] and in test [10] was greater than 100 µM throughout.
As for `O=C(/C(=C/c1ccc(O)cc1)c1ccccc1)c1ccccc1`, the TGI came out at 44.4 µM in test [1]; 38.2 µM in test [2]; 32.5 µM in test [3]; 48.5 µM in test [4]; 33.4 µM in test [5]; 25.9 µM in test [6]. The TGI in [7] turned out to be 29.7 µM; in test [8], 80.2 µM; in [11] it was 37.1 µM; in test [9] it was 31.6 µM.
For the molecule `COc1ccc2c(c1)CC[C@@H]1C2CC[C@]2(C)C(=C=CP(=O)(O)O)CCC12` (stereo partly drawn), the TGI in test [1], in test [2], in test [3], in test [4], in [5] and in test [6] was greater than 100 µM each time. Further, the TGI in test [7], in test [11] and in test [10] was greater than 100 µM each time.
For the molecule `Cc1ccccc1Nc1nc2ccccc2nc1NS(=O)(=O)c1ccccc1`, the TGI in test [1], in test [2], in [3], in test [4], in test [5] and in test [6] was greater than 100 µM throughout. The TGI in test [7], in test [8], in [11] and in [9] was greater than 100 µM each time.
In the case of `COc1ccc2c(c1)[n+](=O)c(C(C)=O)c(C)n2[O-]`, the TGI in test [1], in test [2], in test [3], in test [4], in test [5] and in test [6] was greater than 100 µM in each case. The TGI in test [7], in test [11] and in [9] was greater than 100 µM each time.
As to `CC1=CCN(c2ccccn2)OC1c1ccccc1` (stereo not drawn), the TGI in test [1], in test [2], in [3], in [5], in [6] and in test [7] was greater than 100 µM each time. Moreover, the TGI in [8], in test [11] and in test [9] was greater than 100 µM each time.
On to `COC(=O)C1CCC(=O)N1/C(C)=N/NC(=O)Nc1ccc(Cl)c(Cl)c1` (stereo not drawn), for which the TGI in test [1], in test [2], in test [3], in test [4], in test [5] and in test [6] was greater than 100 µM throughout. Besides, the TGI in [7], in test [8] and in [9] was greater than 100 µM in each case.
Turning to `COC(=O)C(=O)C(C(=O)C(=O)Nc1ccc(C)c(C)c1)c1nc2ccc([N+](=O)[O-])cc2[nH]c1=O` (stereo not drawn), the TGI in [1], in test [2], in test [3], in test [4], in test [5] and in test [6] was greater than 100 µM throughout. Also, the TGI in test [7], in test [8], in [11] and in test [9] was greater than 100 µM in each case.
In the case of `COC(=O)CC1CC2(C(=O)OC)c3[nH]c4ccccc4c3CCN2C1=O` (stereo not drawn), the TGI in test [1], in test [2], in test [3], in [4], in [5] and in test [6] was greater than 100 µM each time. The TGI in test [7], in test [8], in test [11] and in test [9] was greater than 100 µM each time.
For `O=c1c2cc(I)ccc2nc(-c2cccs2)n1O`, the TGI is greater than 100 µM in test [1]; 98.4 µM in test [2]; greater than 100 µM in test [3]; 79.4 µM in [4]; greater than 100 µM in [5]; 80.4 µM in test [6]. The TGI in [7] is greater than 100 µM; in [8] it was 95.2 µM; in test [9], greater than 100 µM; in test [10], 96.9 µM.
For the molecule `Cc1nc(Cc2n[nH]c(C)n2)n[nH]1`, the TGI in [1], in test [3], in test [4], in test [5], in test [6] and in [7] was greater than 100 µM throughout. The TGI in [8] and in [10] was greater than 100 µM throughout.
With `N#Cc1c(N)nc(Sc2ccccc2N)c(C#N)c1-c1ccccc1`, the TGI was greater than 100 µM in [1]; greater than 100 µM in [2]; 34.2 µM in test [4]; 41.3 µM in test [6]; 60.2 µM in test [7]; 46.2 µM in [11]. This molecule had a TGI in test [10] of 52.3 µM.
